For this assay, the system named is NCI-H929 complex spheroids, viability % test/control. In words: Anticancer human tumor NCI-H929 cell line growth inhibition [RAS].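 For all read-outs here: compound exposure lasted seven days before viability was read.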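 For viability, T/C: 100% = DMSO vehicle control viability.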 To be noted: for viability, T/C: stronger effect = lower value. The method in brief: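 Multi-cell-type spheroids: tumor cells plus HUVEC endothelial cells and mesenchymal stem cells. RAS-pathway inhibitors were combined with targeted agents, each dosed in half-log steps down from clinical Cmax, or from 10 microM when Cmax was unknown.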

The structures appear in SMILES notation. “And” between values parts separate entries of the source, which are not always exact repeats. Equal values may be shown once.

The IC50 is the concentration at which inhibition is half-maximal. As a reminder, the viability, T/C is the result in the treated group divided by that in the control group, in per cent.

Consider `C=CC(=O)Nc1cc(Nc2nccc(-c3cn(C)c4ccccc34)n2)c(OC)cc1N(C)CCN(C)C` + CCn1c(-c2cccnc2C(C)OC)c2c3cc(ccc31)N1CCOC(CC(NC(=O)C(C(C)C)N(C)C(=O)C3(F)CCN(C(=O)C#CC(C)(C)N(C)C)CC3)C(=O)N3CCCC(N3)C(=O)OCC(C)(C)C2)C1, for which the IC50 (curve of first compound, second compound 0.000949 µM) was over 1000 nM; the IC50 (curve of first compound, second compound 0.003 µM) was over 1000 nM; the IC50 (curve of first compound, second compound 0.00949 µM) was over 1000 nM; the half-maximal inhibitory concentration (IC50) (curve of first compound, second compound 0.03 µM) is over 1000 nM; the IC50 (curve of first compound, second compound 0.0949 µM) was over 1000 nM; the IC50 (curve of first compound, second compound 0.3 µM) was over 1000 nM. Besides, the viability, T/C is, setting by setting: (second compound 0.000949 µM, first compound 0.00316 µM) 105%; (second compound 0.000949 µM, first compound 0.01 µM) 98.3%; (second compound 0.000949 µM, first compound 0.0316 µM) 110%; (second compound 0.000949 µM, first compound 0.1 µM) 100%; (second compound 0.000949 µM, first compound 0.316 µM) 106%; (second compound 0.000949 µM, first compound 1 µM) 100%. For the same molecule, the viability, T/C runs as follows: (second compound 0.003 µM, first compound 0.00316 µM) 101%; (second compound 0.003 µM, first compound 0.01 µM) 103%; (second compound 0.003 µM, first compound 0.0316 µM) 103%; (second compound 0.003 µM, first compound 0.1 µM) 102%; (second compound 0.003 µM, first compound 0.316 µM) 106%; (second compound 0.003 µM, first compound 1 µM) 103%. For the same molecule, the viability, T/C reads like this: (second compound 0.00949 µM, first compound 0.00316 µM) 99.2%; (second compound 0.00949 µM, first compound 0.01 µM) 101%; (second compound 0.00949 µM, first compound 0.0316 µM) 107%; (second compound 0.00949 µM, first compound 0.1 µM) 103%; (second compound 0.00949 µM, first compound 0.316 µM) 107%; (second compound 0.00949 µM, first compound 1 µM) 103%. Moreover, the viability, T/C reads like this: (second compound 0.03 µM, first compound 0.00316 µM) 90.5%; (second compound 0.03 µM, first compound 0.01 µM) 100%; (second compound 0.03 µM, first compound 0.0316 µM) 108%; (second compound 0.03 µM, first compound 0.1 µM) 107%; (second compound 0.03 µM, first compound 0.316 µM) 110%; (second compound 0.03 µM, first compound 1 µM) 102%. For the same molecule, the viability, T/C (second compound 0.0949 µM, first compound 0.00316 µM) is 95.6%; the viability, T/C (second compound 0.0949 µM, first compound 0.01 µM) is 102%; the viability, T/C (second compound 0.0949 µM, first compound 0.0316 µM) was 104%; the viability, T/C (second compound 0.0949 µM, first compound 0.1 µM) was 106%; the viability, T/C (second compound 0.0949 µM, first compound 0.316 µM) is 107%; the viability, T/C (second compound 0.0949 µM, first compound 1 µM) was 98.3%. The viability, T/C is 99.8% (second compound 0.3 µM, first compound 0.00316 µM); 102% (second compound 0.3 µM, first compound 0.01 µM); 103% (second compound 0.3 µM, first compound 0.0316 µM); 107% (second compound 0.3 µM, first compound 0.1 µM); 105% (second compound 0.3 µM, first compound 0.316 µM); 101% (second compound 0.3 µM, first compound 1 µM).
Take `CC1(O)CCCC1n1c(=O)c(C(F)F)cc2cnc(NC3CCN(S(C)(=O)=O)CC3)nc21` (stereo not drawn): the viability, T/C is 116% and 105% and 113% (2×) (compound 0.0316 µM); 4.47% [middle of 4 runs] (compound 0.316 µM); 9.4% [middle of 4 runs] (compound 1 µM); 2.17% [middle of 4 runs] (compound 3.16 µM); 0.2% and 0.16% and 0.08% (compound 10 µM). For the setting “curve of compound”, the IC50 was 189 nM [middle of 4 runs].

Values taken from PubChem BioAssay AID2060884 (Molecular Pharmacology Branch, DTP, NCI, 2025).
